# Read-outs that look alike come from different tables or passages of the source.
# Key:
# [1] = In vivo pharmacokinetics, oral, mice; parameters: species or system Balb/c mice; Ka: unit not given here; conditions: 5 mg/kg oral, plasma
# Experimental: Compounds were administered orally to mice (Balb/c mice) at a dose of 5 mg/kg as a suspension in 0.5% CMC and Tween 80. Samples were derived from plasma at different time points i.e. 0.16 h, 0.5 h, 1 h, 2 h, 4 h, 6 h, 8 h and 24 h, which were then analysed by LC-MS/MS to generate the required pharmacokinetic parameters.
# [2] = tested on: M. tuberculosis H37Rv (ATCC 27294); experiment: MIC by broth dilution method, M. tuberculosis H37Rv; assay type: cell-based; conditions: Mycobacterium tuberculosis
# [3] = Cytotoxicity assay (MTT) in macrophage J774 cells; assay type: cell-based; conditions: mouse, J774 macrophage cells; also called safety index
# In short: (§1)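 J774 cells seeded at 3×10^4 cells/cm^2 in RPMI with FCS reduced to 5%, then exposed to compounds at 40 μg/ml for 24 hrs. MTT reduction read at 450 nm; percentage cytotoxicity calculated relative to untreated cells.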
# [4] = tested on: macrophage J774 cells line; experiment: Cytotoxicity assay (MTT) in macrophage J774 cells; assay type: cell-based; conditions: J774 cells, 24 hrs, MTT
# In short: as §1
# M. tuberculosis H37Rv = experiment: Combination studies, checkerboard method; assay type: cell-based, Mycobacterium tuberculosis; conditions: for MIC with IA25: in combination with IA25; for MIC with IIA3: in combination with IIA3
# Experimental: The efficacy of compounds IA25 and IIA3 (conc range 4 μg/ml to 0.007 μg/ml) in combination with currently used anti-TB drugs such as rifampicin, isoniazid and ethambutol (each drug tested at conc range 4 μg/ml to […]), wherein the ratio of drugs was ranging between 0.1% to 50%, was determined in vitro using checkerboard method. The checkerboard procedure was performed based on the MIC values by the broth microdilution method. The checkerboard method was performed in 96 well U bottom microtitre plates. 100 microliters of 4× concentration of drug was added to first column of the plate. 50 microliters from first column was transferred to second column and was serially diluted in horizontal manner upto column 10 of the plate. Seven dilutions of 4× concentration of compound were prepared in eppendorfs and fifty microliters of each concentration was added vertically starting from eleventh column of row eight to row second of the plate. First row of the plate served as drug control. 100 microliters of 1:10 diluted of 1 Mc Farland inoculum was added to each well of the plate. Plates were then incubated at 37° C. for 14 days. MIC of drug alone and in presence of compound and vice versa was observed visually. […] The FIC index value for each concentration of two-drug combination was calculated and the minimum value was adopted.
# [5] = 504 h, broth dilution, 3 weeks, read-out: MIC M. tb H37Rv
# [6] = FIC A, drug in combination with IA25
# [7] = FIC A, drug in combination with IIA3
# [8] = read-out: MIC value, text summary: sensitive H37Rv as well as MDR and XDR strains of M. tuberculosis
compound,measurement,setting,value
"C[C@]1(COc2ccc(N3CCC(Oc4ccc(OC(F)(F)F)cc4)CC3)cc2)Cn2cc([N+](=O)[O-])nc2O1 [OPC-67683, reference compound]",CLB,[1],0.0717 mL/min/kg
same,Cmax,[1],668 nM
same,Tmax,[1],2.00 h
same,Vdarea,[1],0.76 L/kg
same,t1/2absorption,[1],0.64 h
same,AUC,"[1]; Balb/c, mouse",9.32 µM·h
C[C@]1(COc2cccc(-n3cc(COc4ccc(OC(F)(F)F)cc4)nn3)c2)Cn2cc([N+](=O)[O-])nc2O1 [IA33],MIC,[2]; [5],0.12 µg/mL
same,"selectivity ratio at 24 h, 40 μg/ml",[3],> 10
same,Cytotoxicity,[4],>40 µg/mL
same,CLB,[1],1.2 mL/min/kg
same,Ka,[1],0.478
same,Vdarea,[1],0.25 L/kg
same,t1/2absorption,[1],1.448 h
same,Cmax,"[1]; Balb/c, mouse, po, 5 mg/kg",595 nM
same,AUC,"[1]; Balb/c, mouse",3.95 µM·h
same,Tmax,"[1]; Balb/c, mouse, read-out: Tmax",2 h
"CC[C@@H](CO)NCCN[C@@H](CC)CO [Ethambutol, reference compound]",FIC (MIC combination/MIC alone),M. tuberculosis H37Rv; [6],FIC A = 0.25
same,FIC (MIC combination/MIC alone),M. tuberculosis H37Rv; [7],FIC A = 0.5
same,MIC alone,M. tuberculosis H37Rv; checkerboard,1 µg/mL
same,MIC with IA25,M. tuberculosis H37Rv; checkerboard,0.25 µg/mL
same,MIC with IIA3,M. tuberculosis H37Rv; checkerboard,0.5 µg/mL
"C[C@]1(COc2ccc(NC(=O)Nc3ccc(C(F)(F)F)cc3)cc2)Cn2cc([N+](=O)[O-])nc2O1 [IIA3, (R)-1-(4-trifluoromethylphenyl)-3-{4-(2-methyl-6-nitro-2,3-dihydroimidazo[2,1-b]oxazol-2-yl)methoxyphenyl}urea]",MIC,[2]; [5],0.12 µg/mL
same,MIC,[2]; [8],< 1 µg/mL
same,"selectivity ratio at 24 h, 40 μg/ml",[3],> 10
same,Cytotoxicity,[4],>40 µg/mL
same,FIC (MIC combination/MIC alone),"M. tuberculosis H37Rv; FIC B, compound in combination with Ethambutol",FIC B = 0.25
same,FIC (MIC combination/MIC alone),"M. tuberculosis H37Rv; FIC B, compound in combination with INH",FIC B = 0.25
same,FIC (MIC combination/MIC alone),"M. tuberculosis H37Rv; FIC B, compound in combination with Rifampicin",FIC B = 0.25
same,MIC alone,M. tuberculosis H37Rv; checkerboard,0.5 µg/mL
same,MIC with Ethambutol,"M. tuberculosis H37Rv; checkerboard, in combination with Ethambutol",0.12 µg/mL
same,MIC with INH,"M. tuberculosis H37Rv; checkerboard, in combination with INH",0.12 µg/mL
same,MIC with Rifampicin,"M. tuberculosis H37Rv; checkerboard, in combination with Rifampicin",0.12 µg/mL
same,FIC Index (FIC A + FIC B),M. tuberculosis H37Rv; combination with Ethambutol,0.75
same,FIC Index (FIC A + FIC B),M. tuberculosis H37Rv; combination with INH,0.75
same,FIC Index (FIC A + FIC B),M. tuberculosis H37Rv; combination with Rifampicin,0.5
same,Observations,M. tuberculosis H37Rv; combination with Rifampicin,synergistic effect
"CO[C@H]1/C=C/O[C@@]2(C)Oc3c(C)c(O)c4c(O)c(c(/C=N/N5CCN(C)CC5)c(O)c4c3C2=O)NC(=O)/C(C)=C\C=C\[C@H](C)[C@H](O)[C@@H](C)[C@@H](O)[C@@H](C)[C@H](OC(C)=O)[C@@H]1C [Rifampicin, reference compound]",FIC (MIC combination/MIC alone),M. tuberculosis H37Rv; [6],FIC A = 0.25
same,FIC (MIC combination/MIC alone),M. tuberculosis H37Rv; [7],FIC A = 0.25
same,MIC alone,M. tuberculosis H37Rv; checkerboard,0.12 µg/mL
same,MIC with IA25,M. tuberculosis H37Rv; checkerboard,0.03 µg/mL
same,MIC with IIA3,M. tuberculosis H37Rv; checkerboard,0.06 µg/mL
"NNC(=O)c1ccncc1 [INH, isoniazid, reference compound]",FIC (MIC combination/MIC alone),M. tuberculosis H37Rv; [6],FIC A = 0.25
same,FIC (MIC combination/MIC alone),M. tuberculosis H37Rv; [7],FIC A = 0.5
same,MIC alone,M. tuberculosis H37Rv; checkerboard,0.25 µg/mL
same,MIC with IA25,M. tuberculosis H37Rv; checkerboard,0.06 µg/mL
same,MIC with IIA3,M. tuberculosis H37Rv; checkerboard,0.12 µg/mL
"C[C@]1(COc2ccc(-c3cc(-c4ccccc4F)on3)cc2)Cn2cc([N+](=O)[O-])nc2O1 [IC4, (R)-2-{4-[5-(2-fluorophenyl)isoxazol-3-yl]phenoxymethyl}-2,3-dihydro-2-methyl-6-nitroimidazo[2,1-b]oxazole]",MIC,[2]; [5],2 µg/mL
same,"selectivity ratio at 24 h, 40 μg/ml",[3],> 10
same,Cytotoxicity,[4],>40 µg/mL
"Cc1ccc(-c2cc(-c3ccc(OC[C@@]4(C)Cn5cc([N+](=O)[O-])nc5O4)cc3)no2)cc1 [IC6, (R)-2-{4-[5-(4-methylphenyl)isoxazol-3-yl]phenoxymethyl}-2,3-dihydro-2-methyl-6-nitroimidazo[2,1-b]oxazole]",MIC,[2]; [5],1 µg/mL
same,"selectivity ratio at 24 h, 40 μg/ml",[3],> 10
same,Cytotoxicity,[4],>40 µg/mL
C[C@]1(COc2ccc(-n3cc(-c4ccccn4)nn3)cc2)Cn2cc([N+](=O)[O-])nc2O1 [IA14],MIC,[2]; [5],2 µg/mL
same,"selectivity ratio at 24 h, 40 μg/ml",[3],> 10
same,Cytotoxicity,[4],>40 µg/mL
"C[C@]1(COc2ccc(NC(=O)Nc3ccc(F)cc3)cc2)Cn2cc([N+](=O)[O-])nc2O1 [IIA1, (R)-1-(4-fluorophenyl)-3-{4-(2-methyl-6-nitro-2,3-dihydroimidazo[2,1-b]oxazol-2-yl)methoxyphenyl}urea]",MIC,[2]; [5],2 µg/mL
same,"selectivity ratio at 24 h, 40 μg/ml",[3],> 10
same,Cytotoxicity,[4],>40 µg/mL
"C[C@]1(COc2ccc(NC(=O)Nc3ccc(OC(F)(F)F)cc3)cc2)Cn2cc([N+](=O)[O-])nc2O1 [IIA6, (R)-1-(4-trifluoromethoxyphenyl)-3-{4-(2-methyl-6-nitro-2,3-dihydroimidazo[2,1-b]oxazol-2-yl)methoxyphenyl}urea]",MIC,[2]; [5],0.5 µg/mL
same,MIC,[2]; [8],< 1 µg/mL
same,"selectivity ratio at 24 h, 40 μg/ml",[3],> 10
same,Cytotoxicity,[4],>40 µg/mL
"C[C@]1(COc2ccc(-n3cc(-c4ccc(OC(F)(F)F)cc4)nn3)cc2)Cn2cc([N+](=O)[O-])nc2O1 [IA5, (R)-2-{4-[4-(4-trifluoromethoxyphenyl)-1H-1,2,3-triazol-1-yl]phenoxymethyl}-2,3-dihydro-2-methyl-6-nitroimidazo[2,1-b]oxazole]",MIC,[2]; [5],0.5 µg/mL
same,MIC,[2]; [8],< 1 µg/mL
same,"selectivity ratio at 24 h, 40 μg/ml",[3],> 10
same,Cytotoxicity,[4],>40 µg/mL
C[C@]1(COc2ccc(-n3cc(COc4ccccc4F)nn3)cc2)Cn2cc([N+](=O)[O-])nc2O1 [IA28],MIC,[2]; [5],0.12 µg/mL
same,MIC,[2]; [8],< 1 µg/mL
same,"selectivity ratio at 24 h, 40 μg/ml",[3],> 10
same,Cytotoxicity,[4],>40 µg/mL
"C[C@]1(COc2ccc(-n3cc(-c4ccc(F)cc4)nn3)cc2)Cn2cc([N+](=O)[O-])nc2O1 [IA3, (R)-2-{4-[4-(4-fluorophenyl)-1H-1,2,3-triazol-1-yl]phenoxymethyl}-2,3-dihydro-2-methyl-6-nitroimidazo[2,1-b]oxazole]",MIC,[2]; [5],0.25 µg/mL
same,MIC,[2]; [8],< 1 µg/mL
same,"selectivity ratio at 24 h, 40 μg/ml",[3],> 10
same,Cytotoxicity,[4],>40 µg/mL
"C[C@]1(COc2ccc(-c3cc(-c4ccc(C(F)(F)F)cc4)on3)cc2)Cn2cc([N+](=O)[O-])nc2O1 [IC5, (R)-2-{4-[5-(4-trifluoromethylphenyl)isoxazol-3-yl]phenoxymethyl}-2,3-dihydro-2-methyl-6-nitroimidazo[2,1-b]oxazole]",MIC,[2]; [5],1 µg/mL
same,"selectivity ratio at 24 h, 40 μg/ml",[3],> 10
same,Cytotoxicity,[4],>40 µg/mL
"CCCCCCCc1cc(-c2ccc(OC[C@@]3(C)Cn4cc([N+](=O)[O-])nc4O3)cc2)no1 [IC12, (R)-2-{4-[5-heptylisoxazol-3-yl]phenoxymethyl}-2,3-dihydro-2-methyl-6-nitroimidazo[2,1-b]oxazole]",MIC,[2]; [5],2 µg/mL
same,"selectivity ratio at 24 h, 40 μg/ml",[3],> 10
same,Cytotoxicity,[4],>40 µg/mL
"C[C@]1(COc2ccc(S(=O)(=O)N3CCOCC3)cc2)Cn2cc([N+](=O)[O-])nc2O1 [IIC10, (R)-2-{4-(morpholinsulfonyl)phenoxymethyl}-2,3-dihydro-2-methyl-6-nitroimidazo[2,1-b]oxazole]",MIC,[2]; [5],0.5 µg/mL
same,MIC,[2]; [8],0.5 µg/mL
same,"selectivity ratio at 24 h, 40 μg/ml",[3],> 10
same,Cytotoxicity,[4],>40 µg/mL
C[C@]1(COc2cccc(-n3cc(COc4ccc(F)cc4)nn3)c2)Cn2cc([N+](=O)[O-])nc2O1 [IA34],MIC,[2]; [5],0.12 µg/mL
same,MIC,[2]; [8],< 1 µg/mL
same,"selectivity ratio at 24 h, 40 μg/ml",[3],> 10
same,Cytotoxicity,[4],>40 µg/mL
"C[C@]1(COc2ccc(S(=O)(=O)N3CCN(c4cccc(Cl)c4)CC3)cc2)Cn2cc([N+](=O)[O-])nc2O1 [IIC3, (R)-2-{4-[4-(3-chlorophenyl)piperazin-1-yl]sulfonylphenoxymethyl}-2,3-dihydro-2-methyl-6-nitroimidazo[2,1-b]oxazole]",MIC,[2]; [5],8 µg/mL
same,"selectivity ratio at 24 h, 40 μg/ml",[3],> 10
same,Cytotoxicity,[4],>40 µg/mL
"C[C@]1(COc2ccc(S(=O)(=O)N3CCCC3)cc2)Cn2cc([N+](=O)[O-])nc2O1 [IIC9, (R)-2-{4-(pyrrolidin-1-ylsulfonyl)phenoxymethyl}-2,3-dihydro-2-methyl-6-nitroimidazo[2,1-b]oxazole]",MIC,[2]; [5],1 µg/mL
same,"selectivity ratio at 24 h, 40 μg/ml",[3],> 10
same,Cytotoxicity,[4],>40 µg/mL
"COc1ccc(-c2cn(-c3ccc(OC[C@@]4(C)Cn5cc([N+](=O)[O-])nc5O4)cc3)nn2)cc1 [IA11, (R)-2-{4-[4-(4-methoxyphenyl)-1H-1,2,3-triazol-1-yl]phenoxymethyl}-2,3-dihydro-2-methyl-6-nitroimidazo[2,1-b]oxazole]",MIC,[2]; [5],0.25 µg/mL
same,MIC,[2]; [8],< 1 µg/mL
same,"selectivity ratio at 24 h, 40 μg/ml",[3],> 10
same,Cytotoxicity,[4],>40 µg/mL
